Marks after values point to notes of the source that are not given here.
Tests used:
JunD = test: Gene array qPCR, human dermal equivalent: JunD; type: cell-based; details: 1.0% 4AR in DMSO, human skin equivalent, 24 hours, mRNA by qPCR
From the text: (§1) In this gene array experiment, we examined the ability of 4AR at a one percent concentration in DMSO (where 100% DMSO served as the vehicle) to either stimulate or inhibit several important genes and quantify directly the transcribed messenger RNA (mRNA) levels by Taqman real time PCR. The test material was placed onto a biological barrier (human dermal equivalent) using a MatTek “ready-to-use” in vitro organotypic tissue equivalent, based on well-documented and validated protocols, using the EpiDerm™ Model EPI-200 Kit. The MatTek kits uses normal (non-transformed) donated human cells as the basis for all of its tissue equivalents. These cells are grown (cultured) in standard Millipore Millicell™ Single Well Tissue Culture Plate Inserts at the air liquid interface or ALI. Apical (top) surface of tissue is exposed to air allowing for direct application of test articles. […] Once the 4 AR test material penetrated the human skin barrier equivalent the gene chip was activated and subsequently mRNA levels were quantified and the results represent stimulation or inhibition of a specific gene.
(§2) To investigate the effects of 4AR on the expression of genes associated with the extracellular matrix (ECM) of the skin, qPCR experiments were conducted using the tissue cultures (model system described above) with subsequent quantification of mRNA levels from […] tissue/cells. […]

[1] = tested on: Superoxide dismutase 1, soluble; test: Gene array qPCR, human dermal equivalent: SOD1; type: cell-based; details: 1.0% 4AR in DMSO, human skin equivalent, 24 hours, mRNA by qPCR
From the text: as §1, §2

Catalase = test: Gene array qPCR, human dermal equivalent: Catalase; type: cell-based; details: 1.0% 4AR in DMSO, human skin equivalent, 24 hours, mRNA by qPCR
From the text: as §1, §2

Type IV collagen alpha 1 = test: Gene array qPCR, human dermal equivalent: Type IV collagen alpha 1; type: cell-based; details: 1.0% 4AR in DMSO, human skin equivalent, 24 hours, mRNA by qPCR
From the text: as §1, §2

Nerve growth factor = test: Gene array qPCR, human dermal equivalent: Nerve growth factor; type: cell-based; details: 1.0% 4AR in DMSO, human skin equivalent, 24 hours, mRNA by qPCR
From the text: as §1, §2

[2] = tested on: PCNA (Proliferating Cell Nuclear Antigen); test: Gene array qPCR, human dermal equivalent: PCNA; type: cell-based; details: 1.0% 4AR in DMSO, human skin equivalent, 24 hours, mRNA by qPCR
From the text: as §1, §2

IL-1a (interleukin 1a) = test: Gene array qPCR, human dermal equivalent: IL-1a; type: cell-based; details: 1.0% 4AR in DMSO, human skin equivalent, 24 hours, mRNA by qPCR
From the text: as §1, §2

IL-6 (interleukin 6) = test: Gene array qPCR, human dermal equivalent: IL-6; type: cell-based; details: 1.0% 4AR in DMSO, human skin equivalent, 24 hours, mRNA by qPCR
From the text: as §1, §2

[3] = tested on: HBEGF (Heparin-binding EGF-like growth factor); test: Gene array qPCR, human dermal equivalent: HBEGF; type: cell-based; details: 1.0% 4AR in DMSO, human skin equivalent, 24 hours, mRNA by qPCR
From the text: as §1, §2

COX 2 (PTGS2) = test: Gene array qPCR, human dermal equivalent: COX 2; type: cell-based; details: 1.0% 4AR in DMSO, human skin equivalent, 24 hours, mRNA by qPCR
From the text: as §1, §2

Metallothionein 1 = test: Gene array qPCR, human dermal equivalent: Metallothionein 1; type: cell-based; details: 1.0% 4AR in DMSO, human skin equivalent, 24 hours, mRNA by qPCR
From the text: as §1, §2

[4] = target: T1, prostate type I 5α-reductase enzyme (Rattus norvegicus, UniProt P24008); test: Prostate 5α-reductase enzyme activity of treated rats; type: in vivo; details: DMSO controls 8.7 + 0.6
T1 construct: from tissue; host or cells: prostate of adult male Long-Evans rats dosed with 4AR for 21 days
T1 sequence (P24008 1-259): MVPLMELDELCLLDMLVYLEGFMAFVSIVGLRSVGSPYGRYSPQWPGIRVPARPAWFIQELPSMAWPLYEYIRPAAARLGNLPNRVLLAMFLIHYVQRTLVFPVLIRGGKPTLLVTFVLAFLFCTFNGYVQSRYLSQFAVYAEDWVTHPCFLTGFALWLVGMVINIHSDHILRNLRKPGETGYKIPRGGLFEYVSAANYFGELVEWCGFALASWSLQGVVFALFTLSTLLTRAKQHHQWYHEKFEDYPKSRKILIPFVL
Procedure: (§3) Adult male Long-Evans rats were administered 4AR for 21 days. DMSO served as the control and 4AR was dissolved into DMSO at the following concentrations: 5.0 mg/kg body weight, 20.0 mg/kg body weight and 90.0 mg/kg body weight (n=12 per group).
Since, the 5a-reductase enzyme (which converts testosterone to 5a-dihydrotestosterone) is important in prostate health in reference to benign prostatic hyperplasia (BPH) and the treatment and prevention of prostate cancer, we determined if prostate type I 5α-reductase enzyme activity was impacted by these treatments by quantifying the enzymatic rates of each animal as described above (in this study there were approximately 10 animals per treatment group).

lysyl oxidase (LOX) = test: Gene array qPCR, human dermal equivalent: LOX; type: cell-based; details: 1.0% 4AR in DMSO, human skin equivalent, 24 hours, mRNA by qPCR
From the text: as §1, §2

IL-8 (interleukin 8) = test: Gene array qPCR, human dermal equivalent: IL-8; type: cell-based; details: 1.0% 4AR in DMSO, human skin equivalent, 24 hours, mRNA by qPCR
From the text: as §1, §2

Fibrillin = test: Gene array qPCR, human dermal equivalent: Fibrillin; type: cell-based; details: 1.0% 4AR in DMSO, human skin equivalent, 24 hours, mRNA by qPCR
From the text: as §1, §2

[5] = Body weight gain and food/water intake in rats, 21 days; type: in vivo, adult male Long-Evans rats
Procedure: as §3
After 10 days of receiving the treatments there was a significant decrease in body weight gain, by an average of approximately 17 grams, in the 90.0 mg/kg vs. the control values (525.0+5.1 vs. 542.1+6.2 grams, respectively. After 20 days on the treatments there was a significant decrease in body weight gain, by approximately 14 grams, in the 20.0 mg/kg vs. control values (566.0+4.7 vs. 551.8+3.7 grams). Finally, there was an even greater significant decrease in body weight gain between the 90.0 mg/kg vs. control values after 20 days on the treatments representing a 54.2 grams decrease (or 566.0+4.7 vs. 511.8+4.1 grams).

For `CC(=O)Oc1ccc(C=Cc2cc(O)cc(O)c2)cc1` [4AR, 3,5-dihydroxy-4′-acetoxy stilbene], the “JunD increased by” value (JunD) was 2.1-fold, the “Superoxide dismutase 1, soluble increased by” value [1] was 1.6-fold and the “Catalase increased by” value (Catalase) was 1.6-fold. For the same compound, the “Type IV collagen alpha 1 increased by” value (Type IV collagen alpha 1) was 1.7-fold, the “Nerve growth factor increased by” value (Nerve growth factor) was 6.7-fold and the “PCNA increased by” value [2] was 5.4-fold with. The “IL-1a decreased by” value (IL-1a (interleukin 1a)) was 10.1-fold, the “IL-6 decreased by” value (IL-6 (interleukin 6)) was 35.2-fold and the “HBEGF increased by” value [3] was 1.9-fold. The “COX 2 decreased by” value (COX 2 (PTGS2)) was 1.7-fold, the “Metallothionein 1 increased by” value (Metallothionein 1) was 64.0-fold and the 5α-reductase enzyme activity ([4]; 5 mg/kg body weight) was 4.6 + 0.4* pmol/hour incubation/mg of protein. For the same compound, the 5α-reductase enzyme activity ([4]; 20 mg/kg body weight) was 3.3 + 0.3* pmol/hour incubation/mg of protein, the 5α-reductase enzyme activity ([4]; 90 mg/kg body weight) was 2.0 + 0.2* pmol/hour incubation/mg of protein and the “Lysyl oxidase increased by” value (lysyl oxidase (LOX)) was 1.9-fold. The “IL-8 decreased by” value (IL-8 (interleukin 8)) was 3.8-fold, the “Fibrillin increased by” value (Fibrillin) was 1.3-fold with and the “decrease in body weight gain vs. control” value ([5]; 20.0 mg/kg, after 20 days) was “approximately 14 grams”. For the same compound, the body weight ([5]; 20.0 mg/kg, after 20 days, control 566.0+4.7) was 551.8+3.7 grams, the “decrease in body weight gain vs. control” value ([5]; 90.0 mg/kg, after 10 days) was “approximately 17 grams” and the body weight ([5]; 90.0 mg/kg, after 10 days, control 542.1+6.2) was 525.0+5.1 grams. The “decrease in body weight gain vs. control” value ([5]; 90.0 mg/kg, after 20 days) was 54.2 grams, the body weight ([5]; 90.0 mg/kg, after 20 days, control 566.0+4.7) was 511.8+4.1 grams and the “food/water intake among the treatment groups” value ([5]; 5.0, 20.0 and 90.0 mg/kg body weight, 21 days, vs DMSO control) was “no significant differences”.

Source: patent US20130123357A1, “Methods for Providing Enhanced Resveratrol Activity Using 4-Acetoxy-Resveratrol” (BRIGHAM YOUNG UNIVERSITY, priority 2010, published 2013)
